Measured values reported in article PMC5518105, “Identification and characterization of the antiplasmodial activity of Hsp90 inhibitors” (Malaria Journal, 2017).
Where two headings read alike, the source gives them in different places.

Assays:
P. falciparum Grp94 = P. falciparum Grp94 (Plasmodium falciparum, UniProt Q8I0V4); test: biochemical; assay type: binding
Method: (§1) Full-length human recombinant HSP90α was purchased (Cayman Chemicals, MI), while the malaria recombinant parasite proteins were generated according to the following protocol. […] Growth at 37 °C continued until the OD600 reached ~1.0, whereupon the temperature was lowered to 18 °C and protein expression was induced by the addition of 1 mM isopropyl β-D-thiogalactopyranoside (IPTG). Overnight post-induction cells were collected by centrifugation and resuspended in binding buffer [50 mM Hepes pH 7.5, 500 mM NaCl, 1 mM benzamidine, and 1 mM phenylmethanesulfonyl fluoride (PMSF)]. The cells were lysed by adding chemical lysis buffer (2% CHAPS, 0.1 mg/mL lysozyme and 0.5 U/mL benzonase), the lysate was clarified by centrifugation. The supernatant was loaded on to a nickel-nitrilotriacetic acid column pre-equilibrated with binding buffer (50 mM Hepes pH 7.5, 500 mM NaCl). Following a wash step with binding buffer containing 5 mM imidazole, the bound protein was eluted with elution buffer (50 mM Hepes pH 7.5, 500 mM NaCl, 250 mM imidazole). The eluate was then loaded on to a 16/60 Superdex 200 size exclusion column pre-equilibrated with 50 mM Hepes pH 7.5 and 500 mM NaCl. Target protein-containing fractions were pooled and concentrated using centrifugal filter units (Amicon). The final protein products and samples for different steps in the purification procedures were evaluated in SDS-Page gels.
(§2) SPR measurements were performed on Biacore T200 instrument (GE Healthcare) at 25 °C. Purified P. falciparum Hsp90 and PfGRP94 N-terminal domain, and full-length human Hsp90α were immobilized on a CM5 sensorchip using NHS/EDC coupling following the manufacturer protocol to a level of <10,000 RUs, a reference surfaces without immobilized proteins served as a control for nonspecific binding and refractive index changes. Seven different concentrations of the ligands between 0.4 nM and 1 mM, were injected in triplicate over the sensor chip at 30 μL/min in random order. The running buffer was 10 mM HEPES, pH 7.4, 150 mM NaCl, 0.005% P20, 1% DMSO and 2 mM MgCl2. Buffer alone injections were used as blanks. The sensor surface was regenerated between injections with a short injection of a buffer 10 mM HEPES, pH 7.4, 150 mM NaCl, 0.005% P20 and 3 mM EDTA. The Biacore responses recorded during the 30 s of the injection were used to estimate the association constant (k on) and the 300 s after the injection were used to estimate the dissociation constant (k off). All kinetic constants were estimated using double subtracted sensorgrams using BiaEvaluation Software (GE Healthcare), the kinetic constants were used to calculate the dissociation constant (K d).

P. falciparum Hsp90 = P. falciparum Hsp90 (Plasmodium falciparum, UniProt Q8IC05); test: biochemical; assay type: binding
Sequence of P. falciparum Hsp90 (Q8IC05 entry or part of it): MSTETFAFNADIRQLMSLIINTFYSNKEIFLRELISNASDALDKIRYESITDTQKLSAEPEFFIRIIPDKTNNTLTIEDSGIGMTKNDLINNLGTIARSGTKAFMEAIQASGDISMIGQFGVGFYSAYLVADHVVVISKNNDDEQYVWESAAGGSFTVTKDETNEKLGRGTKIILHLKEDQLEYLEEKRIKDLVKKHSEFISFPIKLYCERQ
Method: as §1, §2

human Hsp90α = target: T1, human Hsp90α (Homo sapiens, UniProt P07900); test: Biacore SPR analysis, full-length human Hsp90α; assay type: binding; conditions: for kon: read-out: ka
T1 construct: Full-length human recombinant HSP90α was purchased; purchased Cayman Chemicals, MI
Method: as §1
as §2, with “Seven different concentrations of the ligands between 0.4 nM and 1 mM, were injected in triplicate over the sensor chip at 30 μL/min in random order.” left out

[1] = tested on: P. falciparum chloroquine resistant W2; test: Growth inhibition assay (SYBR Green I), W2; conditions: Plasmodium falciparum, W2, 72 h
Method: (§3) A 50% suspension of non-infected O positive erythrocytes was added every 2 days to adjust haematocrit to 5%. Parasite cultures were maintained at 37 °C in 5% O2 and 5% CO2 atmosphere with daily changes of culture media.
(§4) A synchronized P. falciparum culture, with over 80% ring forms, was used in the growth inhibition assay. […] A 190 μL aliquot of parasite culture was dispensed per well to microplates that were pre-dispensed with the compounds at various dilutions. […] Dilutions of Hsp90 inhibitors and DHA were prepared in water with a final concentration of DMSO below 0.05% (v/v).
(§5) The microplates were incubated at 37 °C in a controlled atmosphere (5% O2, 5% CO2 Nitrogen balanced) for 72 h. After incubation, the plates were subject to a freeze–thaw cycle (−80 °C) and the parasite growth was quantified by the SYBR Green I method as previously described [33]. Briefly, 100 µL of homogenized parasite culture was transferred into 96-well black plates. […] The plates were incubated at room temperature in darkness for 1 h.
(§6) Growth inhibition experiments were conducted at least three times per compound (biological replicates, n ≥ 3). The IC50 differences for each inhibitor between the two P. falciparum strains were compared with a t test.

[2] = tested on: P. falciparum chloroquine sensitive 3D7; test: Growth inhibition assay (SYBR Green I), 3D7; conditions: Plasmodium falciparum, 3D7, 72 h
Method: as §3, §4, §5, §6

[3] = SPR, 25 °C, calculated from kinetic constants, read-out: Kd
[4] = Kd, SPR, 25 °C, calculated from kinetic constants

Sequence of P. falciparum Grp94 (Q8I0V4 entry or part of it): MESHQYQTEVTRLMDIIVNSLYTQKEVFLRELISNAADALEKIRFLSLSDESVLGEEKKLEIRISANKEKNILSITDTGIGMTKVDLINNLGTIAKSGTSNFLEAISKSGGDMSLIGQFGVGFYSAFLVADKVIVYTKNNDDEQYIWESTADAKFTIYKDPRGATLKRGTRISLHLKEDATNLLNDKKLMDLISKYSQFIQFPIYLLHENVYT

| Structure (SMILES) | ka (P. falciparum Grp94; SPR, 25 °C) [M⁻¹ s⁻¹] | kd (P. falciparum Grp94; SPR, 25 °C) [s⁻¹] | ka (P. falciparum Hsp90; SPR, 25 °C) | kd (P. falciparum Hsp90; SPR, 25 °C) [s⁻¹] | kd (human Hsp90α; SPR, 25 °C) [s⁻¹] | Kd (P. falciparum Grp94) [µM] | IC90 [1] [µM] | IC50 ([1]; synchronized ring culture) [µM] | IC90 [2] [µM] | IC50 ([2]; synchronized ring culture) [µM] | IC50 [1] [µM] | IC50 [2] [µM] | also measured |
| --- | --- | --- | --- | --- | --- | --- | --- | --- | --- | --- | --- | --- | --- |
| Nc1ncnc2c1ncn2[C@@H]1O[C@H](COP(=O)(O)OP(=O)(O)O)[C@@H](O)[C@H]1O [ADP] | 1360 | 0.003 | 107 M⁻¹ s⁻¹ | 0.002 | 0.006 | – | – | – | – | – | – | – | Kd (P. falciparum Grp94; [3]): 2.21 µM; Kd (P. falciparum Hsp90; [3]): 20.6 µM; ka (human Hsp90α; SPR, 25 °C): 109 M⁻¹ s⁻¹; Kd (human Hsp90α; SPR, 25 °C, calculated from kinetic constants): 63.8 µM |
| CC(C)c1cc(C(=O)N2Cc3ccc(CN4CCN(C)CC4)cc3C2)c(O)cc1O [AT13387, (2,4-dihydroxy-5-isopropylphenyl)-[5-(4-methylpiperazin-1-ylmethyl)-1,3-dihydroisoindol-2-yl]methanone] | 216 | 0.643 | 212 M⁻¹ s⁻¹ | 0.009 | 0.348 | 2980 | 5.37 | 0.531 | 4.57 | 0.665 | – | – | Kd (P. falciparum Hsp90; [4]): 46.5 µM; kon (human Hsp90α): 570 M⁻¹ s⁻¹ |
| CCN(CC)CCCC(C)Nc1ccnc2cc(Cl)ccc12 (stereo not drawn) [CQ, Chloroquine] | – | – | – | – | – | – | 0.39 | – | 0.0672 | – | 0.129 | 0.0379 | – |
| COC1=C2C[C@@H](C)C[C@H](OC)[C@H](O)[C@@H](C)/C=C(\C)[C@H](OC(N)=O)[C@@H](OC)/C=C\C=C(/C)C(=O)NC(=CC1=O)C2=O [Geldanamycin, geldanamycin] | – | – | – | – | – | – | 2.63 | – | 1.7 | – | 0.2 | 0.215 | – |
| CC(C)NCCCn1c(Sc2cc3c(cc2I)OCO3)nc2c(N)ncnc21 [PUH71] | – | – | – | – | – | – | > 10 | – | – | – | 4.42 | 3.92 | ka (P. falciparum Hsp90): 356,000 1/Ms; kd (P. falciparum Hsp90): 0.005 s⁻¹; kd (human Hsp90α): 0.007 s⁻¹ |
| CC(C)NCCCn1c(Sc2cc(Cl)cc(Cl)c2)nc2c(N)ncnc21 [PUWS13] | 149 | 0.843 | 598,000 1/Ms | 0.041 | 0.022 | 5600 | 9.06 | 3.88 | – | 7 | – | – | Kd (P. falciparum Hsp90; [4]): 0.069 µM; kon (human Hsp90α): 811 M⁻¹ s⁻¹ |
| CC1(C)CC(=O)c2c(C(F)(F)F)nn(-c3ccc(C(N)=O)c(N[C@H]4CC[C@H](O)CC4)c3)c2C1 [SNX-2112] | 4720 | 0.0006 | 20,300 1/Ms | 0.003 | – | – | > 10 | 1.7 | – | – | – | – | – |
| CC1(C)CC(=O)c2c(C(F)(F)F)nn(-c3ccc(C(N)=O)c(N[C@H]4CC[C@H](OC(=O)CN)CC4)c3)c2C1 [SNX-5422] | – | – | – | – | – | – | 6.65 | 2.01 | 4.32 | 2.14 | – | – | – |
| CC(C)c1cc(-c2n[nH]c(=O)n2-c2ccc3c(ccn3C)c2)c(O)cc1O [STA-9090] | 1.7e+06 | 0.003 | 1.27 M⁻¹ s⁻¹ | 1.5e-07 | – | 0.001 | > 10 | 1.29 | 4.11 | 1.25 | – | – | Kd (P. falciparum Hsp90; Kd): 0.121 µM |
